System: PUUV
Set-up: species or system AG129 mice
Conditions: mouse, in vivo

## O=C(O)c1ccc(F)c(F)c1Nc1ccc(I)cc1Cl [ATR-002, 2-(2-chloro-4-iodophenylamino)-N-3,4-difluoro benzoic acid]
  virus in the kidney: no virus could be detected
  virus in the lung: no virus could be detected
75 mg/kg/day
  virus titer reduction compared to animals treated with solvent only: complete virus titer reduction
